Assay results published in patent US20230255934A1, “NURR1 RECEPTOR MODULATORS AND USES THEREOF” (The Regents of the University of California, priority 2020, published 2023).
“Also recorded” adds a separate entry of the source. Where two headings read alike, the source gives them in different places.

Tests used:
Nurr1 LBD (wildtype) = molecular target: T1, Nurr1 LBD (wildtype) (Homo sapiens, UniProt P43354); assay: Microscale thermophoresis (MST) binding to wildtype Nurr1 LBD; conditions: for Binding to the Nurr1 LBD (in words): MST; for Kd: read-out: KD; for Amplitude: Table 1, MST amplitude, WT; for Response Amplitude: Table 2, MST, Wildtype
T1 construct: made in house
T1 sequence (P43354 with tags, fused parts or gaps): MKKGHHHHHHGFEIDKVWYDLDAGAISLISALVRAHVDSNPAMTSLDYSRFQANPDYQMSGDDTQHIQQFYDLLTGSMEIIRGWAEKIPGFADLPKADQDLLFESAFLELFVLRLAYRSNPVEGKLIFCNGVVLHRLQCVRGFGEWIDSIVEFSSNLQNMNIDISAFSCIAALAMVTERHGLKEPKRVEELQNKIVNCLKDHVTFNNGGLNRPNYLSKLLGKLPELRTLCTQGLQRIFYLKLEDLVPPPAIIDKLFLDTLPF
Protocol: (§1) Concentration-dependent association of the indoles with the Nurr1 LBD was carried out using microscale thermophoresis. Stock solutions (10 mM in DMSO) of each indole were serially diluted (200 μM indole, 0.5× dilutions down to 0.0061 μM) in MST buffer (25 mM HEPES, pH 7.4, 150 mM NaCl, and 0.1% Pluronic F127) containing 2% DMSO. The dilutions were carried out with 4% DMSO in the MST buffer for a total of 16 concentrations. Equivalent volumes and concentrations of the fluorescently labeled Nurr1 LBD in MST buffer were added to each ligand dilution in the series to reach a final concentration of 75 nM labeled protein. After incubating for 20 minutes, the samples were loaded into Monolith NT.115 Capillaries (Nanotemper).
(§2) Data were collected using the Monolith NT.115 System (Nanotemper), with settings for all samples at 40% excitation power and 40% MST power. The initial fluorescence was recorded for 3 sec and the thermophoresis fluorescence response was recorded for 20 sec. The data was inspected with Palmist software^5, and data points affected by initial fluorescence quenching or photobleaching were eliminated. The fluorescent response for each sample was normalized to the initial fluorescence using Palmist software to provide the values of thermophoresis (Fn). The resulting data was used to generate a plot of the change in thermophoresis (Fn-Fn0, where Fn=thermophoresis and Fn0=thermophoresis response in unbound range) versus concentration of the ligand. GraphPad Prism v. 8.3.0 software was used to fit the resulting data to a mass action equation for a specific binding with Hill slope, solving for KD: Fn-Fn0═Fmax·[L]^n/(KD^n+[L]^n), where Fmax=maximum amplitude of thermophoresis, [L]=concentration of the ligand at a specific point, KD=dissociation constant, nH=Hill Coefficient.
To investigate the potential impact of compound nano-aggregation on binding affinity, we used dynamic light scattering to inspect the aggregation of 5-chlorindole in solution and repeated the MST binding experiments in the presence of increasing concentrations of the surfactant Pluoronic F127 (FIGS. 12A-12D). […] As well, increasing concentrations of the surfactant Pluronic F127 had small effects (<2-fold) on the affinity of 5-chloroindole for the Nurr1 LBD (FIGS. 12A-12D).

Nurr1 LBD His516Ala = molecular target: T2, Nurr1 LBD His516Ala (Homo sapiens, UniProt P43354, H516A); assay: MST binding to His516Ala mutant Nurr1 LBD; conditions: for Amplitude (% change) / KD (% change): Table 1, H516 relative to WT; for Amplitude: Table 1, MST amplitude, H516; for Response Amplitude: Table 2, MST, His516Ala
T2 construct: Mutants of LAP2 Nurr1 were prepared by GenScript starting from LAP2 Nurr1 vector; made in house
T2 sequence (P43354 with tags, fused parts or gaps H516A): as the sequence (P43354 with tags, fused parts or gaps) above, with H180A counted along it
Protocol: The plasmid used for the expression of LAP2-tagged Nurr1 LBDs (LAP2 Nurr1) was prepared by GenScript (Piscataway, N.J.) as the product of gene synthesis and subcloning into pET-21a(+) Vector (GenScript) using the Ndel and Xhol sites within the MCS. Mutants of LAP2 Nurr1 were prepared by GenScript starting from LAP2 Nurr1 vector.
as §1, §2

[1] = test system: Nurr1 target genes Th and Vmat2 in MN9D cells; assay: Target gene transcription assay (qPCR) in MN9D cells; format: cell-based, mouse; conditions: for Expression of Th, fold-change relative to vehicle (DMSO) / Expression of Vmat2, fold-change relative to vehicle (DMSO): 10 μM, 24 h, normalized to Hprt
Protocol: Target Gene Transcription Assays. These assays were carried out using standard protocols. MN9D TET-ON frozen cell stocks (P5) were thawed and grown for 60-72 h on poly-D-lysine pre-treated culture dishes (100 mm) in Dulbecco's Modified Eagle Medium/Nutrient Mixture F-12 (DMEM/F-12; Gibco) supplemented with 5% Tet System Approved FBS (Takara Bio USA) at 37° C., 5% C02 to ˜80% confluency. The resulting cells were then trypsinized with 0.25% Trypsin-EDTA (Gibko) and diluted to 2·10^5 cells/ml with fresh medium. The resulting cell suspension (0.8 mL) was added to 2× concentrated compound in the same medium containing 0.2% DMSO (0.8 mL) in an Eppendorf tube. The cell suspension with compound or vehicle (DMSO) was then seeded onto a 24-well plate pre-treated with Poly-D-Lysine at 0.8 mL per well. Assays were performed under conditions of basal Nurr1 expression, without induction of additional Nurr1 expression using doxycycline.
After 24 h, total RNA was extracted the cells in each well using the Quick-RNA MiniPrep Plus Kit (Zymo Research), according to the manufacturer's instructions. The cDNA was then synthesized from 1000 ng of purified RNA using High-Capacity cDNA Reverse Transcription Kit (Applied Biosystems) and used as template. The qPCR as performed using iTaq Universal SYBR Green Supermix (BioRad) and CFX96 Real-Time Detection System machine (BioRad). Briefly, qPCR was performed in hard-shell 96-well PCR plates (BioRad) using cDNA corresponding to 8.75 ng of starting total RNA in a volume of 15 μl, containing 7.5 μl of SYBR Green Supermix, and 1 μL of 10 μM forward and reverse primers. Cycling parameters for qPCR included an initial denaturation at 95° C. for 3 min, followed by 40 cycles of 95° C. for 5 s and annealing at 56° C. for 30 s. The forward and reverse primers (Table 4) were ordered from IDT. Gene expression was quantified by the comparative2-ΔΔCt method, with the mouse housekeeping gene hypoxanthine-guanine phosphoribosyltransferase (Hprt) used as internal reference to determine the relative mRNA expression. Transcript levels for target genes were normalized to the housekeeping gene Hprt and fold change was compared to gene expression levels from vehicle (DMSO) only treated cells. GraphPad Prism 8 software was used for statistical analysis. Two-way ANOVA was applied for DMSO fold change vs compound. Results are from three independent experiments. Relative average expression±SD; *p<0.05, **p<0.01, ***p<0.001, ****p<0.0001 by ANOVA in comparison expression with 0 μM compound (DMSO only).

[2] = UV/VIS spectroscopy (A280) under MST assay conditions; format: physicochemical; conditions: A280 linear over all concentrations, 0.1% Pluronic F127
[3] = Table 1, Nurr1 variant H516, read-out: KD
[4] = Table 2, His516Ala, read-out: Affinity (KD)

SMILES | Binding to the Nurr1 LBD (in words) (Nurr1 LBD (wildtype)) | Kd (Nurr1 LBD (wildtype); Nurr1 LBD) [µM] | Amplitude (Nurr1 LBD (wildtype)) | Kd (Nurr1 LBD (wildtype); Table 1, Nurr1 variant WT) [µM] | Response Amplitude (Nurr1 LBD (wildtype)) | Amplitude (% change) (Nurr1 LBD His516Ala) [%] | KD (% change) (Nurr1 LBD His516Ala) | Amplitude (Nurr1 LBD His516Ala) | Kd (Nurr1 LBD His516Ala; [3]) [µM] | Kd (Nurr1 LBD His516Ala; [4]) [µM] | Response Amplitude (Nurr1 LBD His516Ala) | Effect on expression of Nurr1 target genes Th and Vmat2 (in words) [1] | Expression of Th, fold-change relative to vehicle (DMSO) [1] [fold] | Expression of Vmat2, fold-change relative to vehicle (DMSO) [1] [fold] | Precipitation under MST assay conditions [2] | other results
Brc1ccc2[nH]ccc2c1 [5-bromoindole] | saturable binding | 5 | 72 + 8 | 10 | 50 + 4 | −43 | +10% | 41 + 5 | 11 | 7.3 | 33 + 5 (*) | upregulating the expression; also recorded: supports the transcription | 2.2 | 2.5 | do not precipitate under the assay conditions | Amplitude (% change) (Nurr1 LBD (wildtype); Table 1, WT (reference)): 0; Binding affinity for His516Ala mutant versus wildtype (in words) (Nurr1 LBD His516Ala; MST): statistically unchanged
Clc1ccc2[nH]ccc2c1 [5-chloroindole] | saturable binding; also recorded: comparable to DHI | 15 | 68 + 4 | 25 | 54 + 2 | −50 | −36% | 34 + 4 | 16 | 8.6 | 25 + 2 (****) | concentration dependent; also recorded: upregulating the expression; also recorded: supports the transcription; also recorded: superior to that of DHI | 1.8 | 2.4 | do not precipitate under the assay conditions | Hill coefficient nH (Nurr1 LBD (wildtype); 0.1% Pluronic F127): 2; Hill coefficient nH (Nurr1 LBD (wildtype); 0.2% Pluronic F127): 2; Kd (Nurr1 LBD (wildtype); 0.2% Pluronic F127): 8.3 ± 0.7 µM; Hill coefficient nH (Nurr1 LBD (wildtype); 0.5% Pluronic F127): 1; Kd (Nurr1 LBD (wildtype); 0.5% Pluronic F127): 10.9 ± 0.3 µM; Hill coefficient nH (Nurr1 LBD (wildtype); 1.0% Pluronic F127): 1; Kd (Nurr1 LBD (wildtype); 1.0% Pluronic F127): 9.1 ± 0.4 µM
